Reference: patent US20120157451A1, “RAF INHIBITOR COMPOUNDS AND METHODS OF USE THEREOF” (GENENTECH, INC, priority 2009, published 2012)

What was measured:
[1] = system: basal ERK1/2 phosphorylation in Malme-3M cells; assay: Cellular ERK 1/2 phosphorylation assay; format: cell-based; conditions: Homo sapiens, 1 hour incubation, pERK normalized to total ERK, representative data of multiple tests
Description: Inhibition of basal ERK1/2 phosphorylation was determined by the following in vitro […], which comprises incubating cells with a compound of Formula I for 1 hour and quantifying the fluorescent pERK signal on fixed cells and normalizing to total ERK signal.
Materials and Methods: Malme-3M cells were obtained from ATCC and grown in RPMI-1640 supplemented with 10% fetal bovine serum. Cells were plated in 96-well plates at 24,000 cells/well and allowed to attach for 16-20 hours at 37° C., 5% CO2. The media was removed, and DMSO-diluted compounds were added in RPMI-1640 at a final concentration of 1% DMSO. The cells were incubated with the compounds for 1 hour at 37° C., 5% CO2. The cells were washed with PBS and fixed in 3.7% formaldehyde in PBS for 15 minutes. This was followed by washing in PBS/0.05% Tween20 and permeabilizing in −20° C. 100% MeOH for 15 minutes. Cells were washed in PBS/0.05% Tween20 then blocked in Odyssey blocking buffer (LI-COR Biosciences) for 1 hour. Antibodies to phosphorylated ERK (1:400, Cell Signaling #9106, monoclonal) and total ERK (1:400, Santa Cruz Biotechnology #sc-94, polyclonal) were added to the cells and incubated 16-20 hours at 4° C. After washing with PBS/0.05% Tween20, the cells were incubated with fluorescently-labeled secondary antibodies (1:1000 goat anti-rabbit IgG-IRDye800, Rockland and 1:500 goat anti-mouse IgG-Alexa Fluor 680, Molecular Probes) for an additional hour. Cells were then washed and analyzed for fluorescence at both wavelengths using the Odyssey Infrared Imaging System (LI-COR Biosciences). Phosphorylated ERK signal was normalized to total ERK signal.

[2] = molecular target: T1, V600E full-length B-Raf (Homo sapiens, UniProt P15056, V600E); assay: B-Raf IC50 assay (incorporation of radiolabeled phosphate from [γ-33P]ATP into FSBA-modified wild-type MEK); format: biochemical
T1 construct: made in house; host or cells: Sf9 insect cells (baculovirus)
Source text: Determining the activity of Raf in the sample is possible by a number of direct and indirect detection methods (US 2004/0082014). Activity of human recombinant B-Raf protein may be assessed in vitro by assay of the incorporation of radio labeled phosphate to recombinant MAP kinase (MEK), a known physiologic substrate of B-Raf, according to US 2004/0127496 and WO 03/022840.
Activity of human recombinant B-Raf protein may be assessed in vitro by assay of the incorporation of radio labeled phosphate to recombinant MAP kinase (MEK), a known physiologic substrate of B-Raf, according to US 2004/0127496 and WO 03/022840. Catalytically active human recombinant B-Raf protein is obtained by purification from sf9 insect cells infected with a human B-Raf recombinant baculovirus expression vector.
Incubations were carried out at 22° C. in a Costar 3365 plate (Corning). Prior to the assay, the B-Raf and FSBA-MEK were preincubated together in assay buffer at 1.5× (20 μL of 30 nM and 1.5 μM, respectively) for 15 minutes, and the assay was initiated by the addition of 10 μL of 10 μM ATP. Following the 60-minute incubation, the assay mixtures were quenched by the addition of 100 μL of 25% TCA, the plate was mixed on a rotary shaker for 1 minute, and the product was captured on a Perkin-Elmer GF/B filter plate using a Tomtec Mach III Harvester. After sealing the bottom of the plate, […] of Bio-Safe II (Research Products International) scintillation cocktail were added to each well and the plate was top-sealed and counted in a Topcount NXT (Packard).

T1 sequence (P15056 whole entry V600E): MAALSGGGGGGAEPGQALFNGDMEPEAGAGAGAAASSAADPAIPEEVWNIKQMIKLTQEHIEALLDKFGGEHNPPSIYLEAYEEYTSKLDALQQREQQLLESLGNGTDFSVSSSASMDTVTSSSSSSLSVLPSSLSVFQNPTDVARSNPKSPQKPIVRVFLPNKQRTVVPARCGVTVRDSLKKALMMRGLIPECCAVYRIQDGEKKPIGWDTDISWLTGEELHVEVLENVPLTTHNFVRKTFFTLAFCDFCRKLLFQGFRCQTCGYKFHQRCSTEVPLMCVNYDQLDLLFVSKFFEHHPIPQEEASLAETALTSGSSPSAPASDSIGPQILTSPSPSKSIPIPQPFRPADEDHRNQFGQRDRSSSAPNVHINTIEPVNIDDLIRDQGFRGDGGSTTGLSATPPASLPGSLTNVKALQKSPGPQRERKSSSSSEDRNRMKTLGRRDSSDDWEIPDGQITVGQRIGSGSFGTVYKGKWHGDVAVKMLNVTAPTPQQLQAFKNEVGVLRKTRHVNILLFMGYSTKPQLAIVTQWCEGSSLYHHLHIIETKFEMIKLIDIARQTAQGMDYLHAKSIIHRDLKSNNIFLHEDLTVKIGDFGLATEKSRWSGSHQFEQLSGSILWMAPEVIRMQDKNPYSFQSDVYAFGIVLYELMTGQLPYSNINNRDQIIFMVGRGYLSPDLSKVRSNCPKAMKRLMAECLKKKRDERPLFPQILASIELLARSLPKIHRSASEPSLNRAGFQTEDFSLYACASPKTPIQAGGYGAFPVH

IC50 ([2]; 4 μM ATP, 60-minute incubation, representative data of multiple tests) [nM] | IC50 ([2]; bound stated) [nM] | Compound | IC50 [1] [nM]
53.2 | < 150 | CCCS(=O)(=O)Nc1ccc(F)c(C(=O)Nc2cnc3cc(OC)nn3c2)c1F [Example 1, 2,6-difluoro-N-(2-methoxypyrazolo[1,5-a]pyrimidin-6-yl)-3-(propylsulfonamido)benzamide] | 68.8
– | < 150 | CCCS(=O)(=O)Nc1ccc(F)c(C(=O)Nc2cnc3cc(OC(C)C)nn3c2)c1F [Example 2, 2,6-difluoro-N-(2-isopropoxypyrazolo[1,5-a]pyrimidin-6-yl)-3-(propylsulfonamido)benzamide] | –
– | < 150 | CCCS(=O)(=O)Nc1ccc(F)c(C(=O)Nc2cnc3cc(OCC)nn3c2)c1F [Example 3, N-(2-ethoxypyrazolo[1,5-a]pyrimidin-6-yl)-2,6-difluoro-3-(propylsulfonamido)benzamide] | –
– | < 300 | CCCS(=O)(=O)Nc1ccc(F)c(C(=O)Nc2cnc3cc(C4CCNCC4)nn3c2)c1F [Example 4, 2,6-difluoro-N-(2-(piperidin-4-yl)pyrazolo[1,5-a]pyrimidin-6-yl)-3-(propylsulfonamido)benzamide] | –
– | – | CCCS(=O)(=O)Nc1ccc(F)c(C(=O)Nc2cnc3cc(-c4ccccc4)nn3c2)c1F [Example 5, 2,6-difluoro-N-(2-phenylpyrazolo[1,5-a]pyrimidin-6-yl)-3-(propylsulfonamido)benzamide] | 13.9
– | < 150 | CCCS(=O)(=O)Nc1ccc(F)c(C(=O)Nc2cnc3cc(-c4ccc(Cl)cc4)nn3c2)c1F [Example 6, N-(2-(4-chlorophenyl)pyrazolo[1,5-a]pyrimidin-6-yl)-2,6-difluoro-3-(propylsulfonamido)benzamide] | –
– | < 150 | CCCS(=O)(=O)Nc1ccc(F)c(C(=O)Nc2cnc3cc(-c4ccc(F)cc4)nn3c2)c1F [Example 7, 2,6-difluoro-N-(2-(4-fluorophenyl)pyrazolo[1,5-a]pyrimidin-6-yl)-3-(propylsulfonamido)benzamide] | –
– | < 150 | CCCS(=O)(=O)Nc1ccc(F)c(C(=O)Nc2cnc3cc(-c4ccc(C)cc4)nn3c2)c1F [Example 8, 2,6-difluoro-3-(propylsulfonamido)-N-(2-p-tolylpyrazolo[1,5-a]pyrimidin-6-yl)benzamide] | –
– | < 150 | CCCS(=O)(=O)Nc1ccc(F)c(C(=O)Nc2cnc3cc(-c4cccc(F)c4)nn3c2)c1F [Example 9, 2,6-difluoro-N-(2-(3-fluorophenyl)pyrazolo[1,5-a]pyrimidin-6-yl)-3-(propylsulfonamido)benzamide] | –
– | < 150 | CCCS(=O)(=O)Nc1ccc(F)c(C(=O)Nc2cnc3cc(-c4cnn(C)c4)nn3c2)c1F [Example 12, 2,6-difluoro-N-(2-(1-methyl-1H-pyrazol-4-yl)pyrazolo[1,5-a]pyrimidin-6-yl)-3-(propylsulfonamido)benzamide] | –
– | < 150 | CCCS(=O)(=O)Nc1ccc(F)c(C(=O)Nc2cnc3cc(-c4cnn(CCO)c4)nn3c2)c1F [Example 13, 2,6-difluoro-N-(2-(1-(2-hydroxyethyl)-1H-pyrazol-4-yl)pyrazolo[1,5-a]pyrimidin-6-yl)-3-(propylsulfonamido)benzamide] | –
– | < 150 | CCCS(=O)(=O)Nc1ccc(F)c(C(=O)Nc2cnc3cc(SC)nn3c2)c1F [Example 14, 2,6-difluoro-N-(2-(methylthio)pyrazolo[1,5-a]pyrimidin-6-yl)-3-(propylsulfonamido)benzamide] | –
– | < 150 | CCCS(=O)(=O)Nc1ccc(F)c(C(=O)Nc2cnc3cc(OCCO)nn3c2)c1F [Example 15, 2,6-difluoro-N-(2-(2-hydroxyethoxy)pyrazolo[1,5-a]pyrimidin-6-yl)-3-(propylsulfonamido)benzamide] | –
– | < 150 | CCCS(=O)(=O)Nc1ccc(F)c(C(=O)Nc2cnc3cc(OCCOC)nn3c2)c1F [Example 16, 2,6-difluoro-N-(2-(2-methoxyethoxy)pyrazolo[1,5-a]pyrimidin-6-yl)-3-(propylsulfonamido)benzamide] | –
– | < 300 | CCCS(=O)(=O)Nc1ccc(F)c(C(=O)Nc2cnc3cc(NC(C)C)nn3c2)c1F [Example 18, 2,6-difluoro-N-(2-(isopropylamino)pyrazolo[1,5-a]pyrimidin-6-yl)-3-(propylsulfonamido)benzamide] | –
– | < 150 | CCCS(=O)(=O)Nc1ccc(Cl)c(C(=O)Nc2cnc3cc(OC)nn3c2)c1F [Example 19, 6-chloro-2-fluoro-N-(2-methoxypyrazolo [1,5-a]pyrimidin-6-yl)-3-(propylsulfonamido) benzamide] | –
– | < 150 | CCCS(=O)(=O)Nc1ccc(F)c(C(=O)Nc2cnc3cc(OC)nn3c2)c1Cl [Example 20, 2-chloro-6-fluoro-N-(2-methoxypyrazolo [1,5-a]pyrimidin-6-yl)-3-(propylsulfonamido) benzamide] | –
– | < 150 | COc1cc2ncc(NC(=O)c3c(F)ccc(NS(=O)(=O)CCCF)c3F)cn2n1 [Example 21, 2,6-difluoro-3-(3-fluoropropyl-sulfonamido)-N-(2-methoxypyrazolo [1,5-a]pyrimidin-6-yl)benzamide] | –
– | < 150 | COc1cc2ncc(NC(=O)c3c(F)ccc(NS(=O)(=O)CC(C)C)c3F)cn2n1 [Example 25, 2,6-difluoro-N-(2-methoxypyrazolo [1,5-a]pyrimidin-6-yl)-3-(2-methylpropyl-sulfonamido) benzamide] | –
– | < 150 | CCCS(=O)(=O)Nc1ccc(F)c(C(=O)Nc2cnc3cc(C)nn3c2)c1F [Example 26, 2,6-difluoro-N-(2-methylpyrazolo [1,5-a]pyrimidin-6-yl)-3-(propylsulfonamido) benzamide] | –
– | < 300 | CCCS(=O)(=O)Nc1ccc(F)c(C(=O)Nc2cnc3ccnn3c2)c1F [Example 27, 2,6-difluoro-3-(propylsulfonamido)-N-(pyrazolo[1,5-a]pyrimidin-6-yl)benzamide] | –
– | < 150 | CCCS(=O)(=O)Nc1ccc(F)c(C(=O)Nc2cnc3cc(C4CC4)nn3c2)c1F [Example 28, N-(2-cyclopropylpyrazolo [1,5-a]pyrimidin-6-yl)-2,6-difluoro-3-(propylsulfonamido) benzamide] | –
– | < 150 | CCCS(=O)(=O)Nc1ccc(F)c(C(=O)Nc2cnc3cc(CC)nn3c2)c1F [Example 29, N-(2-ethylpyrazolo[1,5-a]pyrimidin-6-yl)-2,6-difluoro-3-(propylsulfonamido) benzamide] | –
– | < 150 | CCCS(=O)(=O)Nc1ccc(F)c(C(=O)Nc2cnc3cc(C4CCCC4)nn3c2)c1F [Example 30, N-(2-cyclopentylpyrazolo [1,5-a]pyrimidin-6-yl)-2,6-difluoro-3-(propylsulfonamido) benzamide] | –
– | < 300 | CCCS(=O)(=O)Nc1ccc(F)c(C(=O)Nc2cnc3cc(C4CCOC4)nn3c2)c1F (stereo not shown) [Example 31, 2,6-difluoro-3-(propylsulfonamido)-N-(2-(tetrahydrofuran-3-yl)pyrazolo[1,5-a]pyrimidin-6-yl)benzamide] | –
– | < 150 | CCCS(=O)(=O)Nc1ccc(F)c(C(=O)Nc2cnc3cc(C(F)(F)F)nn3c2)c1F [Example 32, 2,6-difluoro-3-(propylsulfonamido)-N-(2-(trifluoromethyl)pyrazolo[1,5-a]pyrimidin-6-yl)benzamide] | –
– | < 150 | CCCS(=O)(=O)Nc1ccc(Cl)c(C(=O)Nc2cnc3cc(-c4ccccc4)nn3c2)c1F [Example 33, 6-chloro-2-fluoro-N-(2-phenylpyrazolo [1,5-a]pyrimidin-6-yl)-3-(propylsulfonamido) benzamide] | –
– | < 150 | CCCS(=O)(=O)Nc1ccc(F)c(C(=O)Nc2cnc3cc(NC)nn3c2)c1F [Example 35, 2,6-difluoro-N-(2-(methylamino)pyrazolo[1,5-a]pyrimidin-6-yl)-3-(propylsulfonamido) benzamide] | –
– | < 300 | CCCS(=O)(=O)Nc1ccc(F)c(C(=O)Nc2cnc3cc(N4CCOCC4)nn3c2)c1F [Example 36, 2,6-difluoro-N-(2-morpholinopyrazolo [1,5-a]pyrimidin-6-yl)-3-(propylsulfonamido) benzamide] | –
